Measured values: patent publication US20150328310A1, “METHODS AND COMPOSITIONS RELATING TO TREATMENT OF CANCER” (THE PENN STATE RESEARCH FOUNDATION, priority 2012, published 2015)
Like-named read-outs stand apart in the source and are kept apart here.

Legend:
SW480 = test: Cell viability assay of ISC-4 combined with approved antitumor agents, SW480; type: cell-based, human; set-up: key: uncooperative (−); cooperative (+); synergistic (*); ambiguous (?); settings: ISC-4 (1, 2, or 4 μM) plus therapy at putative EC12.5, EC25, EC50; compared to monoagent activity
Method: (§1) Cell lines are obtained from ATCC and cultured in ATCC-recommended media in a humidified incubator at 5% CO2 and 37° C. For cell viability assays, cells are seeded into 96-well black-walled plates at a concentration of 1×10^5 cells per mL in fresh media and in a volume of 100 μL per well. Cells are allowed to adhere overnight and are treated the next day as indicated. At endpoint, CellTiter-Glo (Promega) assays are performed according to the manufacturer's protocol, and the bioluminescent readout is recorded on an IVIS imaging system (Xenogen).
(§2) The SW480 and RKO human colon cancer cell lines are used for initial profiling based on their heterogeneous oncogenic genetic alterations.
(§3) Combinatorial activities of ISC-4 and each listed drug are compared to monoagent activities of each drug alone by cell viability assays and determined to be uncooperative (−), cooperative (+), synergistic (*), or ambiguous (?).

[1] = system: SW480 and RKO colon cancer cell lines; settings: estimated from the literature, dose used with ISC-4 in FIG. 2, cited from earlier work
RKO = test: Cell viability assay of ISC-4 combined with approved antitumor agents, RKO; type: cell-based, human; set-up: key: uncooperative (−); cooperative (+); synergistic (*); ambiguous (?); settings: ISC-4 (1, 2, or 4 μM) plus therapy at putative EC12.5, EC25, EC50; compared to monoagent activity
Method: as §1, §2, §3

[2] = system: human colon cancer cell lines; test: Cell cycle / sub-G1 DNA content analysis after ISC-4 treatment; type: cell-based
Method: (§4) For sub-G1 DNA content analysis, cells are trypsinized at the indicated time points and fixed in 80% ethanol at 4° C. for a minimum of 30 minutes. Fixed cells are then stained with propidium iodide in the presence of RNase and analyzed on an Epics Elite flow cytometer (Beckman Coulter).
The effect of ISC-4 treatment on cell cycle profiles of synchronous and asynchronous HCT116 (FIG. 1B) and HT-29 (FIG. 1C) cell lines is shown. […] Thus, ISC-4 has modest single agent activity against human colon cancer cells by causing cell death and a decrease in proliferation.

[3] = system: panel of human cancer cell lines; test: Cell viability assay of ISC-4 in a panel of human cancer cell lines (72 hr); type: cell-based; settings: human colon cancer cell lines with the exception of HT-29
Method: as §1, with “(Xenogen). For cell synchronization, cells are incubated with 200 ng/mL nocodazole for 16 hours prior to treatment. Chloroquine is obtained from Sigma. zVAD-fmk is obtained from Promega and used at a working concentration of 25 μM. ISC-4 is synthesized as described in Sharma, A. K., et al., J. of Med. Chem., 2008, 51(24):7820-7826.” for “(Xenogen).”
The in vitro activity of ISC-4 is tested in a panel of human cancer cell lines to characterize its spectrum of activity.
The isogenic HCT116 cell lines indicate that ISC-4 activity is likely p53- and Bax-independent.

RKO cells = test: Sub-G1 content by flow cytometry, combination; type: cell-based, human; settings: zVAD-fmk 25 μM
Method: as §4

[4] = Serum chemistry profiles of mice; type: in vivo; settings: serum 2 days after last dose; ISC-4 3 mg/kg i.p., cetuximab 10 mg/kg i.v., twice a week for 2 weeks
Method: Athymic female nude mice (Charles River Laboratories) are inoculated with 1×10^6 of 5-FU-resistant RKO or HT-29 cells in each rear flank as a 200 μL suspension of 1:1 Matrigel (BD):PBS. Treatment is initiated once tumors reached a mean volume of […], intraperitoneal or intravenous injections are given at a total volume of 200 μL in DMSO. […] Tissue is paraffin-embedded and sectioned. H&E staining (Daiko) and TUNEL staining (Millipore) are carried out according to the manufacturer's protocols. For serum chemistry assays, 1 mL of blood is harvested from anesthetized mice by terminal cardiac puncture of the left ventricle. For serum chemistry, 500 μL is placed into a microfuge tube and allowed to clot for 30 minutes at room temperature followed by centrifugation. Serum is removed, centrifuged again to remove any additional debris prior to analysis.
Serum was collected 2 days following the last dose.

Compound | Combinatorial effect of ISC-4 with the listed therapy, SW480 (SW480) | EC12.5 [1] | EC25 [1] | EC50 ([1]; read-out: EC50) [µM] | Combinatorial effect of ISC-4 with the listed therapy, RKO (RKO) | further results
O=C1[O][Pt]2([NH][C@@H]3CCCC[C@H]3[NH]2)[O]C1=O [Oxaliplatin] | − | 0.075 µM | 150 nM | 0.3 | − | 
CC(=O)O[C@@]12CO[C@@H]1C[C@H](O)[C@@]1(C)C(=O)[C@H](O)C3=C(C)[C@@H](OC(=O)[C@H](O)[C@@H](NC(=O)OC(C)(C)C)c4ccccc4)C[C@@](O)([C@@H](OC(=O)c4ccccc4)[C@H]21)C3(C)C [Docetaxel] | − | 2.5 µM | 5000 nM | 10 | − | 
CC[C@]1(O)C[C@H]2CN(CCc3c([nH]c4ccccc34)[C@@](C(=O)OC)(c3cc4c(cc3OC)N(C=O)[C@H]3[C@@](O)(C(=O)OC)[C@H](OC(C)=O)[C@]5(CC)C=CCN6CC[C@]43[C@@H]65)C2)C1 [Vincristine] | − | 3.5e-05 µM | .07 nM | 0.00014 | − | 
Nc1nc(Cl)nc2c1ncn2[C@H]1C[C@H](O)[C@@H](CO)O1 [Cladribine] | − | 0.025 µM | 50 nM | 0.1 | − | 
O=c1[nH]cc(F)c(=O)[nH]1 [5-FU, 5-fluorouracil] | − | 4.5 µM | 9000 nM | 18 | − | 
Nc1nc2[nH]cc(CCc3ccc(C(=O)N[C@@H](CCC(=O)O)C(=O)O)cc3)c2c(=O)[nH]1 [Pemetrexed] | − | 0.25 µg/mL | 0.5 µg/mL |  | − | EC50 [1]: 1 µg/mL
CCc1c2c(nc3ccc(OC(=O)N4CCC(N5CCCCC5)CC4)cc13)-c1cc3c(c(=O)n1C2)COC(=O)[C@]3(O)CC [Irinotecan] | − | 3.38 µM | 6750 nM | 13 | − | 
COc1cccc2c1C(=O)c1c(O)c3c(c(O)c1C2=O)C[C@@](O)(C(=O)CO)C[C@@H]3O[C@H]1C[C@H](N)[C@H](O)[C@H](C)O1 [Doxorubicin] | − | 16.25 µM | 32500 nM | 65 | ? | 
N.N.[Cl][Pt][Cl] [Cisplatin] | + | 1.125 µM | 2250 nM | 4.5 | − | 
COc1cc2ncnc(Nc3ccc(F)c(Cl)c3)c2cc1OCCCN1CCOCC1 [Gefitinib] | + | 5.75 µM | 11500 nM |  | + | 
CC(C)C[C@H](NC(=O)[C@H](Cc1ccccc1)NC(=O)c1cnccn1)B(O)O [Bortezomib] | ? |  |  |  | + | 
Panitumumab | − | 0.75 µg/mL | 1.5 µg/mL |  | − | EC50 [1]: 3 µg/mL
COc1cc([C@@H]2c3cc4c(cc3[C@@H](O[C@@H]3O[C@@H]5CO[C@@H](C)O[C@H]5[C@H](O)[C@H]3O)[C@H]3COC(=O)[C@H]23)OCO4)cc(OC)c1O [Etoposide] | − | 1.25 µM | 2500 nM | 5 | − | 
CNC(=O)c1cc(Oc2ccc(NC(=O)Nc3ccc(Cl)c(C(F)(F)F)c3)cc2)ccn1 [Sorafenib] | + | 8 µM | 16000 nM | 32 | + | 
CS(=O)(=O)CCNCc1ccc(-c2ccc3ncnc(Nc4ccc(OCc5cccc(F)c5)c(Cl)c4)c3c2)o1 [Lapatinib] | − | 1.75 µM | 3500 nM | 7 | − | 
[Se]=C=NCCCCc1ccccc1 [ISC-4] |  |  |  |  |  | Concentration at which ISC-4-induced sub-G1 content becomes apparent ([2]; colon cancer cell lines, 0, 1, 2, 4, 8, or 16 μM ISC-4, dose-dependent): > 8 µM; Sub-G1 content ([2]; synchronized HCT116 and HT-29 cells): modest increase in sub-G1 content; Sensitivity to ISC-4 treatment [3]: moderately sensitive; ISC-4-induced sub-G1 content on co-incubation with pan-caspase inhibitor zVAD-fmk (RKO cells): significantly inhibited; ALT [4]: 29 ± 2 U/L; AST [4]: 221 ± 138 U/L; Alk. Phos. (alkaline phosphatase) [4]: 35 ± 10 U/L; BUN (blood urea nitrogen) [4]: 22 ± 1 mg/dL; Cl [4]: 107 ± 3 mmol/L; Creatinine [4]: 0.1 ± 0 mg/dL; Glucose [4]: 309 ± 8 mg/dL; K [4]: 4.8 ± .1 mmol/L; LDH (lactate dehydrogenase) [4]: 1074 ± 531 U/L; Na [4]: 155 ± 2 mmol/L; T. Bil (total bilirubin) [4]: 0.65 ± 0.07 mg/dL
Nc1ccn([C@@H]2O[C@H](CO)[C@@H](O)C2(F)F)c(=O)n1 [Gemcitabine] | − | 0.5 µM | 1000 nM | 2 | + | 
CC(=O)O[C@H]1C(=O)[C@@]2(C)[C@H]([C@H](OC(=O)c3ccccc3)[C@]3(O)C[C@H](OC(=O)[C@H](O)[C@@H](NC(=O)c4ccccc4)c4ccccc4)C(C)=C1C3(C)C)[C@]1(OC(C)=O)CO[C@@H]1C[C@@H]2O [Paclitaxel] | − | 0.0025 µM | 5 nM | 0.01 | − | 
